Earlier results as cited in US20180318338A1, “METHODS AND COMPOSITIONS FOR THE PREVENTION OF SUICIDE, HOMICIDE AND SELF-HARMING BEHAVIORS” (THE MCLEAN HOSPITAL CORPORATION, priority 2015, published 2018).

Conditions: in vivo

- blood level of xenon: 100 to 200 nL xenon/mL blood
SMILES: [Xe] [xenon]
